# Assays:
# [1] = tested on: L. monocytogenes and S. aureus; assay: Minimum bactericidal concentration (MBC), plating from MIC wells; format: cell-based, Listeria monocytogenes, Staphylococcus aureus; conditions: 99.9% reduction of initial inoculum; 10 μl from wells with no visible growth plated on BHI agar
# Procedure: (§1) The strain collection was tested for sensitivity to protamine, plectasin, novicidin, and novispirin G10 by determining their minimal inhibitory concentration (MIC) using a microbroth dilution method. Colonies from a BHI agar plate incubated overnight were suspended in MHB pH 7.4 to a turbidity of 0.11–0.12 at 546 nm (approx. 1.0 × 10^8 CFU/ml) and diluted in MHB to a concentration of 5.0 × 10^5 CFU/ml. 90 μl of bacterial suspension was incubated with 10 μl of peptide solution in polypropylene 96-well plates (Nunc, 442587) for 18–24 h at 37°C. The peptide solutions were made fresh on the day of assay and diluted two-fold. The range of concentrations assayed were 0.031–32 μg/ml for novicidin, 0.125–128 μg/ml for protamine and novispirin G10, and 0.25–256 μg/ml for plectasin. MIC was the lowest peptide concentration at which visual growth was inhibited. The minimum bactericidal concentration (MBC) values were determined by plating l0 μl samples from wells with no visible growth onto BHI agar plates. MBC was the lowest concentration of each peptide of which 99.9% reduction of the initial inoculum was observed.
# Staphylococcus aureus = assay: MIC of host defense peptides in liquid medium (microbroth dilution); format: cell-based; conditions: 37°C; for MIC values against S. aureus (range over strains): range over 16 strains, MHB pH 7.4, 18–24 h; for MIC: 18–24 h
# Procedure: (§2) Experiments were carried out with a collection of 25 Listeria monocytogenes strains (Table 1) and 16 Staphylococcus aureus strains (Table 2) representing different lineages and serotypes (L. monocytogenes), spa types (S. aureus), and origins (food processing environment, food products, and human clinical isolates). Six L. monocytogenes strains were mutants of the EGD strain and were mutated in genes known to be involved in stress tolerance. The S. aureus collection comprised two deletion mutants, strains Sa113/ΔmprF [8] and Sa113/ΔdltA [7], known to be more sensitive to host defense peptides. Two of the S. aureus strains could not immediately be assigned to an existing spa type and we are in the process of acquiring the additional information that is needed to assign a new spa type to them. The strains were obtained from The National Institute of Aquatic Resources and The National Food Institute, Technical University of Denmark, Faculty of Life Sciences, University of Copenhagen, Denmark, Statens Serum Institut, Denmark, University of Würzburg, Germany and Campden Food and Drink Association, United Kingdom. Stock cultures were stored at -80°C in 4% (w/V) glycerol, 0.5% (w/V) glucose, and 2.0% (w/V) skimmed milk powder. The bacteria were grown in Brain Heart Infusion (BHI) broth (Oxoid, CM0225), Tryptone Soy Broth (TSB) (Oxoid, CM129), and cation-adjusted Mueller-Hinton II Broth (MHB) (Becton Dickinson, 212322) adjusted to pH 7.4. To avoid unspecific binding of host defense peptides to plastic ware and agar, all MIC determinations were carried out using polypropylene plastic ware and radial diffusion assays were carried out in MHB supplemented with 1% agarose (Invitrogen, 15510-027) as gelling agent.
# (§3) Protamine was purchased from Sigma (P4020-5G). Plectasin, novicidin, and novispirin G10 were supplied by Novozymes A/S. Recombinant HBD-3 was purchased from PeproTech (300-52).
# as §1
# Listeria monocytogenes = assay: as above; format: cell-based; conditions: 37°C; for MIC values against L. monocytogenes (range over strains): range over 25 strains, MHB pH 7.4, 18–24 h; for MIC: 18–24 h
# Procedure: as §2, §3, §1
# [2] = strain 796, MHB pH 7.4, 5.0 × 10^5 CFU/ml
# [3] = strain 2148-jvi, MHB pH 7.4, 5.0 × 10^5 CFU/ml
# [4] = strain 8325-4 (wildtype), MHB pH 7.4, 5.0 × 10^5 CFU/ml
# [5] = strain 14943, MHB pH 7.4, 5.0 × 10^5 CFU/ml
# [6] = strain 15033, MHB pH 7.4, 5.0 × 10^5 CFU/ml
# [7] = strain B29997, MHB pH 7.4, 5.0 × 10^5 CFU/ml
# [8] = strain B31369, MHB pH 7.4, 5.0 × 10^5 CFU/ml
# [9] = strain J15033, MHB pH 7.4, 5.0 × 10^5 CFU/ml
# [10] = strain K3-B2, MHB pH 7.4, 5.0 × 10^5 CFU/ml
# [11] = strain KES 439, MHB pH 7.4, 5.0 × 10^5 CFU/ml
# [12] = strain KES 626, MHB pH 7.4, 5.0 × 10^5 CFU/ml
# [13] = strain KES 735, MHB pH 7.4, 5.0 × 10^5 CFU/ml
# [14] = strain KES 855, MHB pH 7.4, 5.0 × 10^5 CFU/ml
# [15] = strain Sa113 (wildtype), MHB pH 7.4, 5.0 × 10^5 CFU/ml
# [16] = strain ΔdltA (Sa113 dltA ins), MHB pH 7.4, 5.0 × 10^5 CFU/ml
# [17] = strain ΔmprF (Sa113 mprF del), MHB pH 7.4, 5.0 × 10^5 CFU/ml
# [18] = strain 2275 (EGD dps del), MHB pH 7.4, 5.0 × 10^5 CFU/ml
# [19] = strain 2307 (EGD resD del), MHB pH 7.4, 5.0 × 10^5 CFU/ml
# [20] = strain 2315 (EGD sigB del), MHB pH 7.4, 5.0 × 10^5 CFU/ml
# [21] = strain 2317 (EGD prfA del), MHB pH 7.4, 5.0 × 10^5 CFU/ml
# [22] = strain 2374 (EGD perR ins), MHB pH 7.4, 5.0 × 10^5 CFU/ml
# [23] = strain 2375 (EGD perR del), MHB pH 7.4, 5.0 × 10^5 CFU/ml
# [24] = strain 4239, MHB pH 7.4, 5.0 × 10^5 CFU/ml
# [25] = strain 4446, MHB pH 7.4, 5.0 × 10^5 CFU/ml
# [26] = strain 4459, MHB pH 7.4, 5.0 × 10^5 CFU/ml
# [27] = strain 4666, MHB pH 7.4, 5.0 × 10^5 CFU/ml
# [28] = strain 6895, MHB pH 7.4, 5.0 × 10^5 CFU/ml
# [29] = strain 7291, MHB pH 7.4, 5.0 × 10^5 CFU/ml
# [30] = strain 7418, MHB pH 7.4, 5.0 × 10^5 CFU/ml
# [31] = strain EGD (wildtype), MHB pH 7.4, 5.0 × 10^5 CFU/ml
# [32] = strain H13-1, MHB pH 7.4, 5.0 × 10^5 CFU/ml
# [33] = strain LO28 (wildtype), MHB pH 7.4, 5.0 × 10^5 CFU/ml
# [34] = strain La22, MHB pH 7.4, 5.0 × 10^5 CFU/ml
# [35] = strain La111, MHB pH 7.4, 5.0 × 10^5 CFU/ml
# [36] = strain M103-1, MHB pH 7.4, 5.0 × 10^5 CFU/ml
# [37] = strain N53-1, MHB pH 7.4, 5.0 × 10^5 CFU/ml
# [38] = strain No40-1, MHB pH 7.4, 5.0 × 10^5 CFU/ml
# [39] = strain O57, MHB pH 7.4, 5.0 × 10^5 CFU/ml
# [40] = strain R479a, MHB pH 7.4, 5.0 × 10^5 CFU/ml
# [41] = strain Scott A, MHB pH 7.4, 5.0 × 10^5 CFU/ml
# [42] = strain V518a, MHB pH 7.4, 5.0 × 10^5 CFU/ml
substance,measurement,setting,value
novicidin,minimum bactericidal concentrations (MBC),[1],identical to the MICs
same,MIC values against S. aureus (range over strains),Staphylococcus aureus,0.5 to 12 mg/L
same,MIC,Staphylococcus aureus; [2],6 mg/L
same,MIC,Staphylococcus aureus; [3],4 mg/L
same,MIC,Staphylococcus aureus; [4],8 mg/L
same,MIC,Staphylococcus aureus; [5],8 mg/L
same,MIC,Staphylococcus aureus; [6],8 mg/L
same,MIC,Staphylococcus aureus; [7],4 mg/L
same,MIC,Staphylococcus aureus; [8],12 mg/L
same,MIC,Staphylococcus aureus; [9],8 mg/L
same,MIC,Staphylococcus aureus; [10],4 mg/L
same,MIC,Staphylococcus aureus; [11],4 mg/L
same,MIC,Staphylococcus aureus; [12],4 mg/L
same,MIC,Staphylococcus aureus; [13],4 mg/L
same,MIC,Staphylococcus aureus; [14],4 mg/L
same,MIC,Staphylococcus aureus; [15],6 mg/L
same,MIC,Staphylococcus aureus; [16],0.5 mg/L
same,MIC,Staphylococcus aureus; [17],1 mg/L
same,MIC values against L. monocytogenes (range over strains),Listeria monocytogenes,2 to 8 mg/L
same,MIC,Listeria monocytogenes; [18],4 mg/L
same,MIC,Listeria monocytogenes; [19],2 mg/L
same,MIC,Listeria monocytogenes; [20],4 mg/L
same,MIC,Listeria monocytogenes; [21],4 mg/L
same,MIC,Listeria monocytogenes; [22],4 mg/L
same,MIC,Listeria monocytogenes; [23],4 mg/L
same,MIC,Listeria monocytogenes; [24],4 mg/L
same,MIC,Listeria monocytogenes; [25],4 mg/L
same,MIC,Listeria monocytogenes; [26],4 mg/L
same,MIC,Listeria monocytogenes; [27],8 mg/L
same,MIC,Listeria monocytogenes; [28],4 mg/L
same,MIC,Listeria monocytogenes; [29],8 mg/L
same,MIC,Listeria monocytogenes; [30],4 mg/L
same,MIC,Listeria monocytogenes; [31],4 mg/L
same,MIC,Listeria monocytogenes; [32],4 mg/L
same,MIC,Listeria monocytogenes; [33],2 mg/L
same,MIC,Listeria monocytogenes; [34],4 mg/L
same,MIC,Listeria monocytogenes; [35],4 mg/L
same,MIC,Listeria monocytogenes; [36],4 mg/L
same,MIC,Listeria monocytogenes; [37],2 mg/L
same,MIC,Listeria monocytogenes; [38],4 mg/L
same,MIC,Listeria monocytogenes; [39],4 mg/L
same,MIC,Listeria monocytogenes; [40],4 mg/L
same,MIC,Listeria monocytogenes; [41],4 mg/L
same,MIC,Listeria monocytogenes; [42],8 mg/L
protamine,MIC values against S. aureus (range over strains),Staphylococcus aureus,8 to 32 mg/L
same,MIC,Staphylococcus aureus; [2],16 mg/L
same,MIC,Staphylococcus aureus; [3],16 mg/L
same,MIC,Staphylococcus aureus; [4],16 mg/L
same,MIC,Staphylococcus aureus; [5],16 mg/L
same,MIC,Staphylococcus aureus; [6],32 mg/L
same,MIC,Staphylococcus aureus; [7],16 mg/L
same,MIC,Staphylococcus aureus; [8],16 mg/L
same,MIC,Staphylococcus aureus; [9],16 mg/L
same,MIC,Staphylococcus aureus; [10],16 mg/L
same,MIC,Staphylococcus aureus; [11],32 mg/L
same,MIC,Staphylococcus aureus; [12],16 mg/L
same,MIC,Staphylococcus aureus; [13],16 mg/L
same,MIC,Staphylococcus aureus; [14],16 mg/L
same,MIC,Staphylococcus aureus; [15],16 mg/L
same,MIC,Staphylococcus aureus; [16],8 mg/L
same,MIC,Staphylococcus aureus; [17],8 mg/L
same,MIC values against L. monocytogenes (range over strains),Listeria monocytogenes,8 to 32 mg/L
same,MIC,Listeria monocytogenes; [18],16 mg/L
same,MIC,Listeria monocytogenes; [19],8 mg/L
same,MIC,Listeria monocytogenes; [20],8 mg/L
same,MIC,Listeria monocytogenes; [21],16 mg/L
same,MIC,Listeria monocytogenes; [22],32 mg/L
same,MIC,Listeria monocytogenes; [23],32 mg/L
same,MIC,Listeria monocytogenes; [24],32 mg/L
same,MIC,Listeria monocytogenes; [25],16 mg/L
same,MIC,Listeria monocytogenes; [26],16 mg/L
same,MIC,Listeria monocytogenes; [27],8 mg/L
same,MIC,Listeria monocytogenes; [28],16 mg/L
same,MIC,Listeria monocytogenes; [29],32 mg/L
same,MIC,Listeria monocytogenes; [30],32 mg/L
same,MIC,Listeria monocytogenes; [31],8 mg/L
same,MIC,Listeria monocytogenes; [32],16 mg/L
same,MIC,Listeria monocytogenes; [33],8 mg/L
same,MIC,Listeria monocytogenes; [34],16 mg/L
same,MIC,Listeria monocytogenes; [35],8 mg/L
same,MIC,Listeria monocytogenes; [36],32 mg/L
same,MIC,Listeria monocytogenes; [37],16 mg/L
same,MIC,Listeria monocytogenes; [38],16 mg/L
same,MIC,Listeria monocytogenes; [39],16 mg/L
same,MIC,Listeria monocytogenes; [40],16 mg/L
same,MIC,Listeria monocytogenes; [41],16 mg/L
same,MIC,Listeria monocytogenes; [42],32 mg/L

# Reference: PMC2639596, “Antimicrobial peptides effectively kill a broad spectrum of Listeria monocytogenes and Staphylococcus aureus strains independently of origin, sub-type, or virulence factor expression” (BMC Microbiology, 2008)
